The source of these data is patent US20150291598A1 (NOVARTIS AG, priority 2012, published 2015).

The subject of this assay is P. falciparum (NF54 or 3D7 strain). The assay can be described thus: Assay for P. falciparum proliferation in infected human blood cells (SYBR Green). The settings on record: Plasmodium falciparum, Erythrocyte, 72 h, NF54 or 3D7 infected human erythrocytes, 72 hours; read-out: EC50 (nM), inhibitory efficacy in delaying P. falciparum proliferation in infected human blood cells. It counts as cell-based, Plasmodium falciparum. Put shortly:
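NF54 or 3D7 parasites in O+ human erythrocytes at 2.5% hematocrit and 0.3% parasitemia final, exposed to compounds 72 h at 37 °C under 93% N2/4% CO2/3% O2.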

In the case of `CN(C(=O)c1cn2c(-c3ccc4c(c3)CC(=O)N4)cnc2cn1)c1ccc(Cl)nc1` [Compound 379, N-(6-chloropyridin-3-yl)-N-methyl-3-(2-oxo-2,3-dihydro-1H-indol-5-yl)imidazo[1,2-a]pyrazine-6-carboxamide], the EC50 was 6260 nM. In the case of `CN(C(=O)c1cn2c(-c3cnc(N)nc3)cnc2cn1)c1ccc(C#N)cc1` [Compound 380, 3-(2-aminopyrimidin-5-yl)-N-(4-cyanophenyl)-N-methylimidazo[1,2-a]pyrazine-6-carboxamide], the EC50 worked out at 4500 nM. Take `C=Cc1cnc2cnc(C(=O)N(C)c3ccc(Cl)nc3)cn12` [Compound 381, N-(6-chloropyridin-3-yl)-3-ethenyl-N-methylimidazo[1,2-a]pyrazine-6-carboxamide]: the EC50 is 5110 nM. Regarding `CN(C(=O)c1cn2c(-c3ccc(C(F)(F)F)cc3)cnc2cn1)c1ccc(C2CCC2)cn1` [Compound 382, N-(5-cyclobutylpyridin-2-yl)-N-methyl-3-[4-(trifluoromethyl)phenyl]imidazo[1,2-a]pyrazine-6-carboxamide], the EC50 turned out to be 8400 nM. In the case of `O=C(NCc1ccc(N2CCOCC2)cc1)c1cn2c(-c3ccc(C(F)(F)F)cc3)cnc2cn1` [Compound 383, N-{[4-(morpholin-4-yl)phenyl]methyl}-3-[4-(trifluoromethyl)phenyl]imidazo[1,2-a]pyrazine-6-carboxamide], the EC50 is greater than 10000 nM. Turning to `CN(C(=O)c1cn2c(-c3ccc(C(F)(F)F)cc3)cnc2cn1)c1ccc(C(C)(C)C)nc1` [Compound 384, N-(6-tert-butylpyridin-3-yl)-N-methyl-3-[4-(trifluoromethyl)phenyl]imidazo[1,2-a]pyrazine-6-carboxamide], the EC50 stood at 6620 nM.

For `CN(C(=O)c1cn2c(-c3ccncc3)cnc2cn1)c1ccc(C#N)cc1` [Compound 385, -(4-cyanophenyl)-N-methyl-3-(pyridin-4-yl)imidazo[1,2-a]pyrazine-6-carboxamide], the EC50 is greater than 10000 nM. As for `N#Cc1ccc(N(CCN)C(=O)c2cn3c(-c4ccc(C(F)(F)F)cc4)cnc3cn2)cc1` [Compound 386, N-(2-aminoethyl)-N-(4-cyanophenyl)-3-[4-(trifluoromethyl)phenyl]imidazo[1,2-a]pyrazine-6-carboxamide], the EC50 was greater than 10000 nM.

For the compound `CN(C(=O)c1cn2c(-c3cc4ccccc4[nH]3)cnc2cn1)c1ccc(Cl)nc1` [Compound 387, N-(6-chloropyridin-3-yl)-3-(1H-indol-2-yl)-N-methylimidazo[1,2-a]pyrazine-6-carboxamide], the EC50 is greater than 10000 nM. As to `CN(C)Cc1ccc(-c2cnc3cnc(C(=O)N(C)c4ccc(Cl)nc4)cn23)cc1` [Compound 388, N-(6-chloropyridin-3-yl)-3-{4-[(dimethylamino)methyl]phenyl}-N-methylimidazo[1,2-a]pyrazine-6-carboxamide], the EC50 was found to be 762 nM. To `N#Cc1nc[nH]c1NC(=O)c1cn2c(-c3ccc(C(F)(F)F)cc3)cnc2cn1` [Compound 389, N-(4-cyano-1H-imidazol-5-yl)-3-[4-(trifluoromethyl)phenyl]imidazo[1,2-a]pyrazine-6-carboxamide] belongs 2000 nM. `Cc1cccnc1N(C)C(=O)c1cn2c(-c3ccc(C(F)(F)F)cc3)cnc2cn1` [Compound 390, N-methyl-N-(3-methylpyridin-2-yl)-3-[4-(trifluoromethyl)phenyl]imidazo[1,2-a]pyrazine-6-carboxamide]: the EC50 was found to be 2650 nM. As for `CN(C(=O)c1cn2c(-c3cnc4c(cnn4C)c3)cnc2cn1)c1ccc(C#N)cc1` [Compound 391, N-(4-cyanophenyl)-N-methyl-3-{1-methyl-1H-pyrazolo[3,4-b]pyridin-5-yl}imidazo[1,2-a]pyrazine-6-carboxamide], the EC50 stood at 2910 nM. Turning to `FC(F)(F)c1ccc(-c2cnc3cnc(CN4CCOCC4)cn23)cc1` [Compound 392, 4-({3-[4-(trifluoromethyl)phenyl]imidazo[1,2-a]pyrazin-6-yl}methyl)morpholine], the EC50 was determined as 3250 nM.

Turning to `CN(C(=O)c1cn2c(-c3ccc(C(N)=O)nc3)cnc2cn1)c1ccc(C#N)cc1` [Compound 393, 5-{6-[(4-cyanophenyl)(methyl)carbamoyl]imidazo[1,2-a]pyrazin-3-yl}pyridine-2-carboxamide], the EC50 stood at 3940 nM. As for `CN(C)c1ccc(N(C)C(=O)c2cn3c(-c4ccc(C(F)(F)F)cc4)cnc3cn2)cn1` [Compound 394, N-[6-(dimethylamino)pyridin-3-yl]-N-methyl-3-[4-(trifluoromethyl)phenyl]imidazo[1,2-a]pyrazine-6-carboxamide], the EC50 amounted to 4910 nM. `COc1ccc(N(C)C(=O)c2cn3c(-c4ccc(C(F)(F)F)cc4)cnc3cn2)nn1` [Compound 395, N-(6-methoxypyridazin-3-yl)-N-methyl-3-[4-(trifluoromethyl)phenyl]imidazo[1,2-a]pyrazine-6-carboxamide]: the EC50 worked out at 5020 nM. As for `CN(C(=O)c1cn2c(-c3ccc4[nH]nc(N)c4c3)cnc2cn1)c1ccc(C#N)cc1` [Compound 396, 3-(3-amino-1H-indazol-5-yl)-N-(4-cyanophenyl)-N-methylimidazo[1,2-a]pyrazine-6-carboxamide], the EC50 is 5720 nM. To `NC(=O)C1CCCN(C(=O)c2cn3c(-c4ccc(C(F)(F)F)cc4)cnc3cn2)C1` (stereo not shown) [Compound 397, 1-({3-[4-(trifluoromethyl)phenyl]imidazo[1,2-a]pyrazin-6-yl}carbonyl)piperidine-3-carboxamide] belongs 6550 nM. In the case of `CNc1ccc(-c2cnc3cnc(C(=O)N(C)c4ccc(Cl)nc4)cn23)cc1` [Compound 398, N-(6-chloropyridin-3-yl)-N-methyl-3-[4-(methylamino)phenyl]imidazo[1,2-a]pyrazine-6-carboxamide], the EC50 came to 6840 nM. To `COc1ncc(N(C)C(=O)c2cn3c(-c4ccc(C(F)(F)F)cc4)cnc3cn2)cn1` [Compound 399, N-(2-methoxypyrimidin-5-yl)-N-methyl-3-[4-(trifluoromethyl)phenyl]imidazo[1,2-a]pyrazine-6-carboxamide] belongs 6980 nM. As for `CN(C(=O)c1cn2c(-c3ccc(NCCN4CCOCC4)nc3)cnc2cn1)c1ccc(C#N)cc1` [Compound 400, -(4-cyanophenyl)-N-methyl-3-(6-{[2-(morpholin-4-yl)ethyl]amino}pyridin-3-yl)imidazo[1,2-a]pyrazine-6-carboxamide], the figure is 7850 nM; as for `CN(C(=O)c1cn2c(-c3ccc(C#N)nc3)cnc2cn1)c1ccc(C#N)cc1` [Compound 401, N-(4-cyanophenyl)-3-(6-cyanopyridin-3-yl)-N-methylimidazo[1,2-a]pyrazine-6-carboxamide], greater than 10000 nM; as for `CN(C(=O)c1cn2c(-c3ccc(OC(C)(C)CN)cc3)cnc2cn1)c1ccc(C#N)cc1` [Compound 402, 3-{4-[(1-amino-2-methylpropan-2-yl)oxy]phenyl}-N-(4-cyanophenyl)-N-methylimidazo[1,2-a]pyrazine-6-carboxamide], 3610 nM.

In the case of `CN(C(=O)c1cn2c(C(=O)Nc3ccc(C(F)(F)F)cc3)cnc2cn1)c1ccc(Cl)nc1` [Compound 403, 6-N-(6-chloropyridin-3-yl)-6-N-methyl-3-N-[4-(trifluoromethyl)phenyl]imidazo[1,2-a]pyrazine-3,6-dicarboxamide], the EC50 was greater than 5980 nM. In the case of `NC(=O)c1nc[nH]c1NC(=O)c1cn2c(-c3ccc(C(F)(F)F)cc3)cnc2cn1` [Compound 404, 5-C-3-[4-(trifluoromethyl)phenyl]imidazo[1,2-a]pyrazine-6-1H-imidazole-4,5-dicarboxamide], the EC50 was greater than 7570 nM. Regarding `CC(c1ccc(Cl)cc1)N(C)C(=O)c1cn2c(-c3ccc(C(F)(F)F)cc3)cnc2cn1` (stereo not shown) [Compound 405, N-[1-(4-chlorophenyl)ethyl]-N-methyl-3-[4-(trifluoromethyl)phenyl]imidazo[1,2-a]pyrazine-6-carboxamide], the EC50 is greater than 8820 nM. For the compound `O=C(Nc1ccc(S(=O)(=O)Nc2nccs2)cc1)c1cn2c(-c3ccc(C(F)(F)F)cc3)cnc2cn1` [Compound 406, N-{4-[(1,3-thiazol-2-yl)sulfamoyl]phenyl}-3-[4-(trifluoromethyl)phenyl]imidazo[1,2-a]pyrazine-6-carboxamide], the EC50 was greater than 8860 nM.

Take `CNc1ccc(-c2cnc3cnc(C(=O)N(C)c4ccc(Cl)nc4)cn23)cn1` [Compound 407, N-(6-chloropyridin-3-yl)-N-methyl-3-[6-(methylamino)pyridin-3-yl]imidazo[1,2-a]pyrazine-6-carboxamide]: the EC50 is greater than 8970 nM. As for `CN(C(=O)c1cn2c(-c3ccc(NC(=O)C(C)(C)N)cc3)cnc2cn1)c1ccc(C#N)cc1` [Compound 408, 3-[4-(2-amino-2-methylpropanamido)phenyl]-N-(4-cyanophenyl)-N-methylimidazo[1,2-a]pyrazine-6-carboxamide], the EC50 was greater than 9300 nM. `Cc1ccc(N(C)C(=O)c2cn3c(-c4ccc(OCCN)cc4)cnc3cn2)nc1` [Compound 409, 3-[4-(2-aminoethoxyl)phenyl]-N-methyl-N-(5-methylpyridin-2-yl)imidazo[1,2-a]pyrazine-6-carboxamide]: the EC50 was greater than 9340 nM.

Consider `CN(C(=O)c1cn2c(-c3ccc(-c4nnco4)cc3)cnc2cn1)c1ccc(Cl)nc1` [Compound 410, N-(6-chloropyridin-3-yl)-N-methyl-3-[4-(1,3,4-oxadiazol-2-yl)phenyl]imidazo[1,2-a]pyrazine-6-carboxamide], for which the EC50 is greater than 10000 nM. Turning to `Cc1nc(C(=O)N2CCCc3cc(F)ccc32)cn2c(-c3ccc(C(F)(F)F)cc3)cnc12` [Compound 411, 6-fluoro-1-({8-methyl-3-[4-(trifluoromethyl)phenyl]imidazo[1,2-a]pyrazin-6-yl}carbonyl)-1,2,3,4-tetrahydroquinoline], the EC50 was greater than 7570 nM. In the case of `CN(C(=O)c1cn2c(-c3ccc(C(F)(F)F)cc3)cnc2cn1)c1ccc(C2CCCC2)cn1` [Compound 412, N-(5-cyclopentylpyridin-2-yl)-N-methyl-3-[4-(trifluoromethyl)phenyl]imidazo[1,2-a]pyrazine-6-carboxamide], the EC50 turned out to be 7880 nM.
